Where two headings read alike, the source gives them in different places.
How the values were obtained:
BCL-2 = biological target: T1, BCL-2 (Homo sapiens, UniProt P10415); assay: BCL-2 TR-FRET Assay (primary PPI inhibition); format: binding; details: 60 min incubation; read-out: BCL2 (IC50 code, BCL-2 TR-FRET)
T1 construct: purchased BPS Bioscience #50222

BCL-XL = biological target: T2, BCL-XL (Homo sapiens, UniProt Q07817); assay: BCL-XL TR-FRET Assay (primary PPI inhibition); format: binding; details: 60 min incubation; read-out: BCLxL (IC50 code, BCL-XL TR-FRET)
T2 construct: purchased BPS Bioscience #50223
Description: BCL-XL TR-FRET Assay (BPS Bioscience, #50223) Assay Condition: The following assay concentrations and times were used: 10.5 ng BCL-XL, 5 ul of 1:100 anti-His Tb-labeled donor, 5 ul of 1:100 Dye-labeled acceptor, 5 ul of 1:80 BCL-XL Peptide Ligand, and 2 ul of test compound, with 60 min incubation time. The results of the assay were read using a Clariostar (BMG Labtech) plate reader with the following parameters: TR FRET, 340 ex/620 and 665 em; 60 μsec Delay; and 500 μsec integration.

RS4-11 cells = assay: Cell viability assay RS4-11 (CellTiter-Glo); format: cell-based; details: Homo sapiens, read-out: RS4-11 (CC50 code)
Description: (§1) Assay Condition: Used culture medium for HEK293-DMEM (PanEco, Cat #C420), for the rest of the cell lines—culture medium RPMI-1640 (PanEco, Cat #C363).
(§2) Assay Procedure: Compounds were prepared as 200× stocks with serial dilution in 100% DMSO with a final concentration of 1×. Dispersed 40 μl in 384-well plates at a concentration of 2000 cells per well for HEK293 and at a concentration of 4000 cells per well for the rest of the cell lines using a robotic station Biomek (Beckman). Before adding compounds, the cells were incubated at 37° C. (HEK293 were incubated for a day before adding compounds).
(§3) A dilution plate was prepared by pouring 78 μl of the appropriate culture medium using a robotic station Biomek (Beckman). Sequentially, using a robotic station, 2 μl of substances were taken and added to 78 μl of culture medium (dilution of compounds 40×). Took from there 10 μl and added to the plates to the cells (dilution of compounds 5×). The plates were incubated for 3 days at a temperature 37° C. After 3 days, 10 μl of CellTiter-Glo (Promega) was added to the cells and the luminescence was measured.

MOLT-4 cells = assay: Cell viability assay MOLT-4 (CellTiter-Glo); format: cell-based; details: Homo sapiens, read-out: MOLT-4 (CC50 code)
Description: as §1, §2, §3

[1] = Cell viability assay HEK293 (CellTiter-Glo); format: cell-based; details: human, HEK293 cells, read-out: HEK293 (CC50 code)
Description: as §1, §2, §3

[2] = 72 h, RS4-11 cells, 3 days, CellTiter-Glo
[3] = 72 h, MOLT-4 cells, 3 days, CellTiter-Glo

T1 sequence (P10415 whole entry): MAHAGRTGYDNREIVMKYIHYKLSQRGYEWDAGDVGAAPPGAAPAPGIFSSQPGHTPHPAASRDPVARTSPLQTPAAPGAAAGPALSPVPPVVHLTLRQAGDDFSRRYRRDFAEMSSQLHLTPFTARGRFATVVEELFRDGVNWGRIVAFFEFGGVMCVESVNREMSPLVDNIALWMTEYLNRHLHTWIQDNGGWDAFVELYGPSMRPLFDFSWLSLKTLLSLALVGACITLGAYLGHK
T2 sequence (Q07817 whole entry): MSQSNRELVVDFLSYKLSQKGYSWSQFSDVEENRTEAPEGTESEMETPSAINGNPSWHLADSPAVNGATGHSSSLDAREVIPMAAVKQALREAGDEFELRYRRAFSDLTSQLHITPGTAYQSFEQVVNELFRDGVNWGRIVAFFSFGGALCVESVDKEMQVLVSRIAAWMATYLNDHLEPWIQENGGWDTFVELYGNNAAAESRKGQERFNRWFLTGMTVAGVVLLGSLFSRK

Row | IC50 (BCL-2) | IC50 (BCL-XL) | SMILES | CC50 (RS4-11 cells; [2]) | CC50 (MOLT-4 cells; [3]) | CC50 at 3 days [1] | CC50 (RS4-11 cells; RS4-11, 72 h) | CC50 (MOLT-4 cells; MOLT-4, 72 h)
1 | > 0.05 µM | > 4 µM | Cn1ncc(Oc2cc(N3CCC(CN4CCCCC4c4ccc(Cl)cc4)CC3)ccc2C(=O)NS(=O)(=O)c2ccc(NCC3CCOCC3)c([N+](=O)[O-])c2)cc1=O (centres unmarked) [Compound 65, 4-[4-[[2-(4-chlorophenyl)-1-piperidyl]methyl]-1-piperidyl]-2-(1-methyl-6-oxo-pyridazin-4-yl)oxy-N-[3-nitro-4-(tetrahydropyran-4-ylmethylamino)phenyl]sulfonyl-benzamide] | > 0.2 µM | > 10 µM | 10 to 25 µM | – | –
2 | 0.01 to 0.05 µM | 2 to 4 µM | O=C(NS(=O)(=O)c1ccc(NCC2CCOCC2)c([N+](=O)[O-])c1)c1ccc(N2CCN(C[C@H]3Cc4ccccc4CN3C(=O)c3cccs3)CC2)cc1Oc1cnc2[nH]ccc2c1 [Compound 34, N-[3-nitro-4-(tetrahydropyran-4-ylmethylamino)phenyl]sulfonyl-2-(1H-pyrrolo[2,3-b]pyridin-5-yloxy)-4-[4-[[(3R)-2-(thiophene-2-carbonyl)-3,4-dihydro-1H-isoquinolin-3-yl]methyl]piperazin-1-yl]benzamide] | – | – | – | – | –
3 | 0.01 to 0.05 µM | 2 to 4 µM | C[C@]1(O)CC[C@H](CN2CCN(c3ccc(C(=O)NS(=O)(=O)c4ccc(NCC5CCOCC5)c([N+](=O)[O-])c4)c(Oc4cnc5[nH]ccc5c4)c3)CC2)[C@@H](c2ccc(Cl)cc2)C1 [Compound 74, 4-[4-[[(1S,2S,4S)-2-(4-chlorophenyl)-4-hydroxy-4-methyl-cyclohexyl]methyl]piperazin-1-yl]-N-[3-nitro-4-(tetrahydropyran-4-ylmethylamino)phenyl]sulfonyl-2-(1H-pyrrolo[2,3-b]pyridin-5-yloxy)benzamide] | > 0.2 µM | 2 to 10 µM | 10 to 25 µM | – | –
4 | > 0.05 µM | > 4 µM | O=C(NS(=O)(=O)c1ccc(NCC2CCOCC2)c([N+](=O)[O-])c1)c1ccc(N2CCN(C(c3ccccc3)c3ccc(F)cc3)CC2)cc1Oc1ccc2[nH]ccc2c1 (centres unmarked) [Compound 12, 4-[4-[(4-fluorophenyl)-phenyl-methyl]piperazin-1-yl]-2-(1H-indol-5-yloxy)-N-[3-nitro-4-(tetrahydropyran-4-ylmethylamino)phenyl]sulfonyl-benzamide] | > 0.2 µM | > 10 µM | > 25 µM | – | –
5 | > 0.05 µM | > 4 µM | O=C(NS(=O)(=O)c1ccc(NCC2CCOCC2)c([N+](=O)[O-])c1)c1ccc(N2CCN(C(c3ccccc3)c3ccccc3)CC2)cc1Oc1cnc2[nH]ccc2c1 [Compound 17, 4-(4-benzhydrylpiperazin-1-yl)-N-[3-nitro-4-(tetrahydropyran-4-ylmethylamino)phenyl]sulfonyl-2-(1H-pyrrolo[2,3-b]pyridin-5-yloxy)benzamide] | > 0.2 µM | > 10 µM | > 25 µM | – | –
6 | > 0.05 µM | > 4 µM | O=C(NS(=O)(=O)c1ccc(NCC2CCOCC2)c([N+](=O)[O-])c1)c1ccc(N2CCN(C[C@H]3[C@H](c4ccc(Cl)cc4)[C@@H]4C=C[C@H]3C4)CC2)cc1Oc1cnc2[nH]ccc2c1 [Compound 68, 4-[4-[[(1R,2R,3R,4S)-3-(4-chlorophenyl)-2-bicyclo[2.2.1]hept-5-enyl]methyl]piperazin-1-yl]-N-[3-nitro-4-(tetrahydropyran-4-ylmethylamino)phenyl]sulfonyl-2-(1H-pyrrolo[2,3-b]pyridin-5-yloxy)benzamide] | > 0.2 µM | 2 to 10 µM | 10 to 25 µM | – | –
7 | 0.01 to 0.05 µM | > 4 µM | CC1=CC[C@@H](CN2CCN(c3ccc(C(=O)NS(=O)(=O)c4ccc(NCC5CCOCC5)c([N+](=O)[O-])c4)c(Oc4cnc5[nH]ccc5c4)c3)CC2)[C@@H](c2ccc(Cl)cc2)C1 [Compound 71, 4-[4-[[(1R,6S)-6-(4-chlorophenyl)-4-methyl-cyclohex-3-en-1-yl]methyl]piperazin-1-yl]-N-[3-nitro-4-(tetrahydropyran-4-ylmethylamino)phenyl]sulfonyl-2-(1H-pyrrolo[2,3-b]pyridin-5-yloxy)benzamide] | – | – | – | – | –
8 | 0.01 to 0.05 µM | 2 to 4 µM | O=C(NS(=O)(=O)c1ccc(NCCCN2CCOCC2)c([N+](=O)[O-])c1)c1ccc(N2CCC(CN3CCCCC3c3ccc(Cl)cc3)CC2)cc1Oc1cnc2[nH]ccc2c1 (centres unmarked) [Compound 73, 4-[4-[[2-(4-chlorophenyl)-1-piperidyl]methyl]-1-piperidyl]-N [4-(3-morpholinopropylamino)-3-nitro-phenyl]sulfonyl-2-(1H-pyrrolo[2,3-b]pyridin-5-yloxy)benzamide] | > 0.2 µM | 2 to 10 µM | 10 to 25 µM | – | –
9 | > 0.05 µM | > 4 µM | CCCC(c1ccc(Br)cc1)N1CCN(c2ccc(C(=O)NS(=O)(=O)c3ccc(NCC4CCOCC4)c([N+](=O)[O-])c3)c(Oc3ccc4[nH]ccc4c3)c2)CC1 (centres unmarked) [Compound 15, 4-[4-[1-(4-bromophenyl)butyl]piperazin-1-yl]-2-(1H-indol-5-yloxy)-N-[3-nitro-4-(tetrahydropyran-4-ylmethylamino)phenyl]sulfonyl-benzamide] | – | – | – | – | –
10 | > 0.05 µM | > 4 µM | O=C1CC[C@]2(c3ccc(Cl)cc3)C[C@@]2(CN2CCN(c3ccc(C(=O)NS(=O)(=O)c4ccc(NCC5CCOCC5)c([N+](=O)[O-])c4)c(Oc4cnc5[nH]ccc5c4)c3)CC2)C1 [Compound 77, 4-[4-[[(1R,6R)-6-(4-chlorophenyl)-3-oxo-norcaran-1-yl]methyl]piperazin-1-yl]-N-[3-nitro-4-(tetrahydropyran-4-ylmethylamino)phenyl]sulfonyl-2-(1H-pyrrolo[2,3-b]pyridin-5-yloxy)benzamide] | > 0.2 µM | 2 to 10 µM | 10 to 25 µM | – | –
11 | > 0.05 µM | – | O=C(NS(=O)(=O)c1ccc(NCC2CCOCC2)c([N+](=O)[O-])c1)c1ccc(N2CCN(C(c3ccccc3)c3ccc(Cl)cc3)CC2)cc1Oc1ccc2[nH]ccc2c1 (centres unmarked) [Compound 14, 4-[4-[(4-chlorophenyl)-phenyl-methyl]piperazin-1-yl]-2-(1H-indol-5-yloxy)-N-[3-nitro-4-(tetrahydropyran-4-ylmethylamino)phenyl]sulfonyl-benzamide] | – | – | – | – | –
12 | – | – | O=C(NS(=O)(=O)c1ccc(NCC2CCOCC2)c([N+](=O)[O-])c1)c1ccc(N2CCN(C[C@@H]3CC(F)(F)CN3c3ccc(Cl)cc3)CC2)cc1Oc1cnc2[nH]ccc2c1 [Compound 81, 4-[4-[[(2S)-1-(4-chlorophenyl)-4,4-difluoro-pyrrolidin-2-yl]methyl]piperazin-1-yl]-N-[3-nitro-4-(tetrahydropyran-4-ylmethylamino)phenyl]sulfonyl-2-(1H-pyrrolo[2,3-b]pyridin-5-yloxy)benzamide] | > 0.2 µM | 2 to 10 µM | 10 to 25 µM | – | –

Row | SMILES | IC50 (BCL-2) | IC50 (BCL-XL) | CC50 (RS4-11 cells; [2]) | CC50 (MOLT-4 cells; [3]) | CC50 at 3 days [1] | CC50 (RS4-11 cells; RS4-11, 72 h) | CC50 (MOLT-4 cells; MOLT-4, 72 h)
13 | O=C(NS(=O)(=O)c1ccc(NCC2CCOCC2)c([N+](=O)[O-])c1)c1ccc(N2CCC(CN3CC4(CCCC4)C3c3ccccc3)CC2)cc1Oc1cnc2[nH]ccc2c1 (centres unmarked) [Compound 27, N-[3-nitro-4-(tetrahydropyran-4-ylmethylamino)phenyl]sulfonyl-4-[4-[(3-phenyl-2-azaspiro[3.4]octan-2-yl)methyl]-1-piperidyl]-2-(1H-pyrrolo[2,3-b]pyridin-5-yloxy)benzamide] | > 0.05 µM | 2 to 4 µM | – | – | > 25 µM | > 0.2 µM | 2 to 10 µM
14 | O=C(NS(=O)(=O)c1ccc(NCC2CCOCC2)c([N+](=O)[O-])c1)c1ccc(N2CCC(CN3C(=O)C4(CCCC4)C3c3ccc(Cl)cc3)CC2)cc1Oc1ccc2[nH]ccc2c1 (centres unmarked) [Compound 10, 4-[4-[[1-(4-chlorophenyl)-3-oxo-2-azaspiro[3.4]octan-2-yl]methyl]-1-piperidyl]-2-(1H-indol-5-yloxy)-N-[3-nitro-4-(tetrahydropyran-4-ylmethylamino)phenyl]sulfonyl-benzamide] | > 0.05 µM | – | – | – | ≤ 10 µM | > 0.2 µM | > 10 µM
15 | CC1=CC[C@@H](c2ccc(Cl)cc2)[C@H](CN2CCN(c3ccc(C(=O)NS(=O)(=O)c4ccc(NCC5CCOCC5)c([N+](=O)[O-])c4)c(Oc4cnc5[nH]ccc5c4)c3)CC2)C1 [Compound 60, 4-[4-[[(1R,6R)-6-(4-chlorophenyl)-3-methyl-cyclohex-3-en-1-yl]methyl]piperazin-1-yl]-N-[3-nitro-4-(tetrahydropyran-4-ylmethylamino)phenyl]sulfonyl-2-(1H-pyrrolo[2,3-b]pyridin-5-yloxy)benzamide] | > 0.05 µM | > 4 µM | – | – | – | – | –

Reference: patent US11834450B2, “Compounds having ((3-nitrophenyl)sulfonyl)acetamide as BCL-2 inhibitors” (Eil Therapeutics, Inc., priority 2021, dated 2023)
